Where “and” joins values, the source holds several entries; their conditions need not be identical. Equal entries are not always repeated. Entries after “also recorded” stand apart in the source; their conditions may differ.
Columns and labels:
[1] = Redox potentials of iron complexes (no method given); assay type: physicochemical
[2] = Effective magnetic moment in solution from magnetic susceptibility (NMR); assay type: physicochemical; conditions: aqueous solution
Protocol: The effective magnetic moment (μeff) was calculated by using a previously known method. 5 mM Co^II complex and 5% t-butanol by volume was placed in a NMR insert while the outer NMR tube contained 5% by volume t-butanol in D2O. The μeff was calculated at 298 K (T) and monitored over a period of 72 hours using the following approach.
The mass susceptibility of solute (χg) was calculated by obtaining the observed frequency shift of the reference (Δf) in Hz, the spectrometer frequency (f) in Hz, the mass of the substance per cm^3 of solution (m), and the mass susceptibility of solvent D2O (χ0=−0.6466×10^−6 cm^3/g). The last term is neglected due to the minimal contribution to mass susceptibility of solute. The molar susceptibility (χm) is the product of χg multiplied by the molecular weight of the Co^II complex.
The effective magnetic moment was calculated by using a previously known method. In a typical experiment, oxygen-free solution of 8-20 mM [Co(TPT)]^2+ in deuterium oxide, pD 7.0, containing 5% tert-butanol by volume was placed in an NMR tube, while a reference solution of 5% tert-butanol (v/v) in deuterium oxide, pD 7.0, was placed into NMR tube insert. All solutions of [Co(TPT)]^2+ were purged with argon and kept in the absence of air. The effective magnetic moment (μeff) was calculated at 298 K (T) using the following equations 7-8. In these equations the mass susceptibility of solute (χg) was calculated by obtaining the observed frequency shift of the reference (Δf) in Hz, the spectrometer frequency (f) in Hz, the mass of the substance per cm^3 of the solution (m), and the mass susceptibility of deuterium oxide (χ0=−0.6466×10^−6 cm^3/g). The last term in eq. SI is neglected due to the minimal contribution to mass susceptibility of solute. The molar susceptibility (χm) is the product of χg multiplied by the molecular weight of the [Co(TPT)]Cl2 complex. Reported value of the effective magnetic moment was obtained by averaging of three independent experiments. χg=(−3Δf)/(4πfm)+χ0+[χ0(d0−ds)]/m eq. 7 μeff=2.84(χmT)^1/2 eq. 8

[3] = Kinetics of Co(II) oxidation and Co(III) reduction by UV-vis; assay type: physicochemical
Source text: Materials and methods. Instrumentation. Varian Inova 400 MHz and Inova 500 MHz NMR spectrometers were used to collect ^1H NMR spectra. ^13C NMR spectra were acquired using a Varian Mercury 300 MHz NMR spectrometer operating at 75 MHz. The measurements of magnetic susceptibility and CEST data were acquired on Varian Inova 500 MHz NMR spectrometer. Temperature of samples during ^1H NMR and CEST experiments was controlled with FTS Systems TC-84 Kinetics Air Jet Temperature Controller. A Thermo Scientific Orion 9826BN NMR micro pH electrode connected to a SympHony SB20 pH meter and the Orion 8115BNUWP Ross-ultra semi micro pH electrode connected to a Titrino 702 pH meter were used for pH measurements. ThermoFinnigan LCQ Advantage IonTrap LC/MS equipped with a Surveyor HPLC system was used to collect mass spectral data. Absorbance spectra of [Co(TPT)]^2+ and [Co(TPT)]^3+, together with the kinetic experiments for the reduction of Co(III) with L-ascorbic acid or sodium dithionite, and for the oxidation of Co(II) with oxygen or sodium peroxydisulfate were measured with a Beckman-Coulter DU 800 UV-vis Spectrophotometer equipped with a Peltier Temperature Controller. Kinetic experiments for the oxidation of Co(II) complex were performed after equilibration of the solutions with a mixture containing 5%, 10%, and 20% of oxygen in nitrogen followed by addition of [Co(TPT)]^2+ in the minimal volume of solvent. All experiments for the reduction of […] were performed under an inert atmosphere of argon. […]

[4] = Exchange rate constants (omega plot)
Protocol: Exchange rate constants were calculated following a previously reported procedure. Measurements of on-resonance (Mz) and off-resonance (Mo) were acquired at different presaturation pulse powers between 350-1000 Hz (8-24 μT) applied for 4 seconds at 37° C. The exchange rate constant (kex) is calculated from the x-intercept from the plot of Mz/(Mo−Mz) against 1/ω1^2 (ω1 in rad/s). The rate constant, kex, is converted into units of s^−1. Samples contained 10 mM Co^II complex, 20 mM HEPES pH 7.4, and 100 mM NaCl.
The exchange rate constants were calculated by using a previously reported procedure. The magnetization of the on-resonance (Mz) and off-resonance (Mo) were acquired at different pre-saturation pulse powers between 350-1090 Hz applied for 4 seconds. To calculate the exchange rate constant (kb), the x-intercept (−1/kb^2) was obtained from the plot of Mz/(Mo−Mz) against 1/ω1^2 (ω1 in rad/s). Samples contained 16 mM [Co(TPT)]Cl2, 200 mM NaCl, and 40 mM MES or HEPES at pH 6.4-7.5. Measurements were carried out at 37° C.

Cyclic voltammetry = assay type: physicochemical; conditions: versus NHE, in water, 1 M KCl
Protocol: Cyclic voltammograms were obtained using a Princeton Applied Research Model 263A Potentiostat/Galvanostat and PowerSuite software program. CHI 104 Glassy Carbon Disk working electrode from CH Instruments, Inc. (Austin, Tex.) was used. Cyclic Voltammetry. […] (FIG. 6). The external ferrocyanide standard with Eo (Fe(III)/Fe(II))=303±10 mV vs. NHE contained 1.0 mM K4Fe(CN)6 and 1.00 M KCl under argon. The redox potential of the complex calculated based on a NHE reference using eq. 6: E^o(vs. NHE)=E^o(vs. Ag/AgCl)+167 mV, eq. 6 Determination of Magnetic Moment.

[5] = Oxidation in air / reduction with dithionite followed by 1H NMR; assay type: physicochemical

| Compound | redox potential [1] [mV] | effective magnetic moment [2] [BM] | second-order rate constant for reduction by dithionite ([3]; 200 mM NaCl, 40 mM HEPES, pH 7.0, 37° C.) [M⁻¹ s⁻¹] | second-order rate constant for oxidation by oxygen ([3]; 200 mM NaCl, 40.0 mM HEPES, pH 7.1, 25° C.) [M⁻¹ s⁻¹] | rate constant for oxidation of the Co(II) complex ([3]; ambient pressures of oxygen) [s⁻¹] | rate constant for reduction of Co(III) complex ([3]; excess dithionate) [s⁻¹] | rate constant for oxidation, extrapolated ([3]; hypoxic conditions, 10 mm Hg, 17 μM O2) [s⁻¹] | rate constant for oxidation, extrapolated ([3]; oxygen 100 mm Hg (0.17 mM O2), arterial blood) [s⁻¹] | rate constant for oxidation of the Co(II) complex ([3]; partial pressures of oxygen of 5%, in 1/s) | rate constant for proton exchange ([4]; pH 6.4, 37° C.) | rate constant for proton exchange ([4]; pH 6.9, 37° C.) | rate constant for proton exchange ([4]; pH 7.5, 37° C.) | reduction potential (Cyclic voltammetry) | stability towards oxidation in air (in words) [5] |
| --- | --- | --- | --- | --- | --- | --- | --- | --- | --- | --- | --- | --- | --- | --- |
| O=C([O-])CN1CCN(CC(=O)[O-])CCN(CC(=O)[O-])CC1.[Fe+3] [Fe(NOTA)] | 195 | – | – | – | – | – | – | – | – | – | – | – | – | – |
| [Co+2].c1cc(CN2CCN(Cc3cc[nH]n3)CCN(Cc3cc[nH]n3)CC2)n[nH]1 [[Co(TPT)]^2+] | – | 5.7±0.2 | 0.24 | 0.43 | 5e-06 | 4e-05 | 7.3e-06 | 7.3e-05 | 2×10^−6 | 6,200 s^−1 | 9,200 s^−1 | 12,400 s^−1 | −107 mV and −107±11 mV | readily oxidize; also recorded: oxidizes in air to the Co(III) form |
| [Fe+2].c1cc(CN2CCN(Cc3cc[nH]n3)CCN(Cc3cc[nH]n3)CC2)n[nH]1 [[Fe(TPT)]^2+] | – | – | – | – | – | – | – | – | – | – | – | – | – | readily oxidize |
